# Measurements as given in article PMC9127750, “Structure-based design of CDC42 effector interaction inhibitors for the treatment of cancer” (Cell reports, 2022).
# Where “and” joins values, the source holds several entries; their conditions need not be identical. Equal values may be shown once.
# Tested on: WM3248 melanoma cells, 486 antibodies
# Test: Reverse phase protein arrays (RPPA)
# Assay type: cell-based, Human
# Settings: 20 uM
# From the text: Pellets were snap frozen in liquid nitrogen and shipped to MD Anderson Cancer Center core RPPA facility for RPPA analysis (Table S5). Three biological replicates for each sample were generated.
# Nomenclatures on the RPPA heatmaps: name_of_antibody.species_of_antibody.status_of_antibody. V - antibody validated; C - validation of antibody in progress; Q - antibody nonspecific; E – under evaluation; antibodies raised in M - mouse, G - goat, R - rabbit, or T - rat.
smiles,measurement,setting,value
"CN(C)c1cccc(Nc2cc(-c3ccccc3)nc(C3CCNCC3)n2)c1 [ARN22089, N1,N1-dimethyl-N3-(6-phenyl-2-(piperidin-4-yl)pyrimidin-4-yl)benzene-1,3-diamine]",RPPA SGK1.R.V Average,average of 3,0.842
same,RPPA SGK3.R.V Average,average of 3,1.023
same,RPPA SHP2.R.V Average,average of 3,1.005
same,RPPA SHP.2_pY542.R.C Average,average of 3,1.076
same,RPPA SIRPαR.V Average,average of 3,0.981
same,RPPA SLC1A5.R.C Average,average of 3,1.080
same,RPPA SOD1.M.V Average,average of 3,0.967
same,RPPA SOD2.R.V Average,average of 3,1.111
same,RPPA SOX7.R.V Average,average of 3,1.078
same,RPPA STING.R.V Average,average of 3,0.964
same,RPPA Shc_pY317.R.C Average,average of 3,1.012
same,RPPA Slfn11.G.C Average,average of 3,0.995
same,RPPA Smac.M.Q Average,average of 3,0.977
same,RPPA Smad1.R.V Average,average of 3,1.081
same,RPPA Smad3.R.V Average,average of 3,1.101
same,RPPA Smad4.R.V Average,average of 3,1.112
same,RPPA Snail.M.Q Average,average of 3,0.754
same,RPPA Sox2.R.V Average,average of 3,1.223
same,RPPA Sox17.R.V Average,average of 3,0.982
same,RPPA Src.M.V Average,average of 3,0.962
same,RPPA Src_pY416.R.V Average,average of 3,1.034
same,RPPA Src_pY527.R.V Average,average of 3,1.187
same,RPPA Stat3.R.C Average,average of 3,0.979
same,RPPA Stat3_pY705.R.C Average,average of 3,1.281
same,RPPA Stat5a.R.V Average,average of 3,1.185
same,RPPA Stathmin.1.R.V Average,average of 3,0.924
same,RPPA Syk.M.V Average,average of 3,0.975
same,RPPA TAZ.R.V Average,average of 3,0.719
same,RPPA TEAD.R.C Average,average of 3,0.998
same,RPPA TFAM.R.V Average,average of 3,0.978
same,RPPA TFRC.R.V Average,average of 3,0.934
same,RPPA TRAP1.M.V Average,average of 3,0.944
same,RPPA TRIM24.R.C Average,average of 3,1.085
same,RPPA TRIM25.R.C Average,average of 3,0.893
same,RPPA TRIP13.R.V Average,average of 3,0.978
same,RPPA Transglutaminase.M.V Average,average of 3,1.323
same,"RPPA signal, antibody TSC1.R.C, Average",average of 3 replicates,0.906
same,"RPPA signal, antibody TTF1.R.V, Average",average of 3 replicates,1.016
same,"RPPA signal, antibody TUFM.R.V, Average",average of 3 replicates,1.103
same,"RPPA signal, antibody Tuberin_pT1462.R.V, Average",average of 3 replicates,1.116
same,"RPPA signal, antibody Twist.M.C, Average",average of 3 replicates,0.954
same,"RPPA signal, antibody Tyro3.R.V, Average",average of 3 replicates,1.154
same,"RPPA signal, antibody U.Histone.H2B.R.C, Average",average of 3 replicates,2.471
same,"RPPA signal, antibody UBAC1.R.V, Average",average of 3 replicates,1.016
same,"RPPA signal, antibody UGT1A.M.V, Average",average of 3 replicates,1.000
same,"RPPA signal, antibody ULK1_pS757.R.C, Average",average of 3 replicates,0.908
same,"RPPA signal, antibody UQCRC2.M.C, Average",average of 3 replicates,0.887
same,"RPPA signal, antibody VASP.R.V, Average",average of 3 replicates,0.952
same,"RPPA signal, antibody VAV1.R.C, Average",average of 3 replicates,1.024
same,"RPPA signal, antibody VEGFR.2.R.V, Average",average of 3 replicates,0.928
same,"RPPA signal, antibody VEGFR.2_pY1175.R.C, Average",average of 3 replicates,1.063
same,"RPPA signal, antibody VHL.EPPK1.M.C, Average",average of 3 replicates,1.020
same,"RPPA signal, antibody VHL.R.C, Average",average of 3 replicates,0.956
same,"RPPA signal, antibody Vinculin.M.V, Average",average of 3 replicates,0.913
same,"RPPA signal, antibody WIPI2.R.C, Average",average of 3 replicates,1.142
same,"RPPA signal, antibody WTAP.R.V, Average",average of 3 replicates,1.197
same,"RPPA signal, antibody Wee1.R.C, Average",average of 3 replicates,1.011
same,"RPPA signal, antibody XBP.1.G.C, Average",average of 3 replicates,0.972
same,"RPPA signal, antibody XIAP.R.C, Average",average of 3 replicates,0.993
same,"RPPA signal, antibody XPA.M.V, Average",average of 3 replicates,0.982
same,"RPPA signal, antibody XPF.R.C, Average",average of 3 replicates,0.952
same,"RPPA signal, antibody XRCC1.R.C, Average",average of 3 replicates,1.024
same,"RPPA signal, antibody YAP.R.C, Average",average of 3 replicates,0.993
same,"RPPA signal, antibody YB1_pS102.R.V, Average",average of 3 replicates,1.015
same,"RPPA signal, antibody YES1.R.V, Average",average of 3 replicates,0.974
same,"RPPA signal, antibody YTHDF2.R.V, Average",average of 3 replicates,1.022
same,"RPPA signal, antibody YTHDF3.R.C, Average",average of 3 replicates,0.957
same,"RPPA signal, antibody ZAP.70.R.V, Average",average of 3 replicates,0.929
same,"RPPA signal, antibody ZEB1.R.V, Average",average of 3 replicates,1.026
same,"RPPA signal, antibody TSC1.R.C",individual replicates,0.941 and 0.818 and 0.960
same,"RPPA signal, antibody TTF1.R.V",individual replicates,1.015 and 0.923 and 1.110
same,"RPPA signal, antibody TUFM.R.V",individual replicates,1.758 and 0.731 and 0.819
same,"RPPA signal, antibody Tuberin.R.V",individual replicates,0.781 and 1.344 and 1.402
same,"RPPA signal, antibody Tuberin_pT1462.R.V",individual replicates,0.961 and 1.362 and 1.023
same,"RPPA signal, antibody Twist.M.C",individual replicates,0.937 and 0.987
same,"RPPA signal, antibody Tyro3.R.V",individual replicates,1.400 and 1.084 and 0.979
same,"RPPA signal, antibody U.Histone.H2B.R.C",individual replicates,5.570 and 0.775
same,"RPPA signal, antibody UBAC1.R.V",individual replicates,1.007 and 0.954
same,"RPPA signal, antibody UBQLN4.M.C",individual replicates,1.008 and 0.906 and 0.933
same,"RPPA signal, antibody UGT1A.M.V",individual replicates,0.958 and 1.050 and 0.991
same,"RPPA signal, antibody ULK1_pS757.R.C",individual replicates,0.848 and 1.011
